Experimental data from patent publication US20240317727A1 (Duke University, priority 2018, published 2024).
Each block holds one compound with its values, some of them ahead of it.

Biological target: T1, recombinant HSF1 DNA-binding domain (DBD) (Homo sapiens, UniProt Q00613)
T1 sequence (Q00613 15-120): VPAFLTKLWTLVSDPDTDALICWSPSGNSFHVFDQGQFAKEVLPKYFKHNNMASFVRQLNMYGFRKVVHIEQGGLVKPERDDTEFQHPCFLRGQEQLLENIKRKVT
Test: Differential Scanning Fluorimetry (DSF), HSF1 DBD melting temperature
Conditions: 5 μM HSF1 DBD, 25PM Compound, positive = stabilizes, negative = destabilizes HSF1

SMILES: O=C(N/N=C/c1cccnc1)c1ccc(=O)[nH]n1 [Compound 0037]
ΔTm at 25 µM (Table 1): -9.74 °C

SMILES: O=[N+]([O-])c1cc(/C=N/Nc2ccc(Br)c(Cl)c2)cs1 [Compound 0038]
ΔTm at 25 µM (Table 1): 7.27 °C

SMILES: Cc1cc(N)c2ccccc2c1O [Compound 0039]
ΔTm at 25 µM (Table 1): -4.28 °C

SMILES: Cc1cc(C(C#N)c2ccc(Cl)cc2)c(Cl)cc1NC(=O)c1cc(I)cc(I)c1O (stereo not shown) [Compound 0040]
ΔTm at 25 µM (Table 1): -7.95 °C

SMILES: CC(=O)NC1C(O)OC(OS(=O)(=O)O)C(O)C1OC1CC(C(=O)O)C(O)C(O)C1O (stereo not shown) [Compound 0041]
ΔTm at 25 µM (Table 1): -3.11 °C

SMILES: CC1CC(=O)Oc2cc(Oc3c([N+](=O)[O-])cc(C(F)(F)F)cc3[N+](=O)[O-])ccc21 (stereo not shown) [Compound 0042]
ΔTm at 25 µM (Table 1): -6.23 °C

SMILES: CCOC(=O)N1CCN(C2=Nc3cc(Cl)ccc3C(C)C2)CC1 (stereo not shown) [Compound 0043]
ΔTm at 25 µM (Table 1): -9.07 °C

SMILES: O=C(Nc1cccc(Cl)c1)O/N=C/c1ccc(F)cc1 [Compound 0045]
ΔTm (Table 1): −8.21

SMILES: O=C(Nc1cccc(Cl)c1)O/N=C/c1ccc(F)cc1 [Compound 0051]
ΔTm (Table 1): −6.91

SMILES: CC(NC(=O)CSc1nnc(-c2ccccc2O)n1-c1ccccc1)c1ccccc1 (stereo not shown) [Compound 0052]
ΔTm at 25 µM (Table 1): -11 °C

SMILES: N=C(N)NC(=O)c1nc(Cl)c(N)nc1N [Compound 0053]
ΔTm at 25 µM (Table 1): -10.1 °C

SMILES: CCOC(=O)c1cc(C#N)c(Sc2nnc(SC)s2)nc1C(F)(F)F [Compound 0055]
ΔTm at 25 µM (Table 1): -9.69 °C

SMILES: CCC(C(=O)C(C)C(O)C(C)CCc1ccc(C)c(O)c1C(=O)O)C1OC(CC)(C2CCC(O)(CC)C(C)O2)CC1C (stereo not shown) [Compound 0056]
ΔTm at 25 µM (Table 1): -5.96 °C

SMILES: O=C(CSc1nnc(-c2ccccc2)n1-c1ccc(F)cc1)NCc1ccccc1 [Compound 0057]
ΔTm at 25 µM (Table 1): -10.5 °C

SMILES: Cc1ccc(NC(=O)Nc2cccc(C(F)(F)F)c2)cc1 [Compound 0058, 1-(p-tolyl)-3-(3-(trifluoromethyl)phenyl)urea]
ΔTm at 25 µM (Table 1): 2.58 °C

SMILES: Cc1ccc(NC(=O)Nc2cccc(C(F)(F)F)c2)cc1 [Compound 058, 1-(p-tolyl)-3-(3-(trifluoromethyl)phenyl)urea]
ΔTm at 25 µM (Table 3): 2.58 °C

SMILES: O=[N+]([O-])c1cc(C(F)(F)F)cc([N+](=O)[O-])c1Oc1ccc(C2SCCS2)cc1 [Compound 0062]
ΔTm at 25 µM (Table 1): -6.9 °C

SMILES: CSc1sc(NC(=O)Nc2cccc(C(F)(F)F)c2)cc1C#N [Compound 0065]
ΔTm at 25 µM (Table 1): 4.44 °C

SMILES: O=C(N/N=C/c1ccc(Br)s1)c1[nH]cc2ccccc12 [Compound 0069]
ΔTm at 25 µM (Table 1): 8.06 °C

The remaining lines, values ahead:

ΔTm at 25 µM (Table 3): 5.7 °C
SMILES: O=C(Nc1ccc(F)c(F)c1)Nc1ccc(Cl)c([N+](=O)[O-])c1 [Compound 034, 1-(4-chloro-3-nitrophenyl)-3-(3,4-difluorophenyl)urea]

ΔTm at 25 µM (Table 1): 6.44 °C
SMILES: O=C(Nc1cccc(C(F)(F)F)c1)Nc1ccc2nonc2c1 [Compound 0035]

ΔTm at 25 µM (Table 1): 2.61 °C
SMILES: COc1ccc(NC(=O)Nc2ccc(Cl)cc2)cc1 [Compound 0036, 1-(4-chlorophenyl)-3-(4-methoxyphenyl)urea]

ΔTm at 25 µM (Table 3): 2.61 °C
SMILES: COc1ccc(NC(=O)Nc2ccc(Cl)cc2)cc1 [Compound 036, 1-(4-chlorophenyl)-3-(4-methoxyphenyl)urea]

ΔTm at 25 µM (Table 1): 2.33 °C
SMILES: O=C(Nc1ccc(Cl)c(Cl)c1)Nc1ccc(Cl)c([N+](=O)[O-])c1 [Compound 0044, 1-(4-chloro-3-nitrophenyl)-3-(3,4-dichlorophenyl)urea]

ΔTm at 25 µM (Table 3): 2.33 °C
SMILES: O=C(Nc1ccc(Cl)c(Cl)c1)Nc1ccc(Cl)c([N+](=O)[O-])c1 [Compound 044, 1-(4-chloro-3-nitrophenyl)-3-(3,4-dichlorophenyl)urea]

ΔTm at 25 µM (Table 1): 4.3 °C
SMILES: Cc1ccc(NC(=O)Nc2ccc(Cl)c([N+](=O)[O-])c2)cc1 [Compound 0046, 1-(4-chloro-3-nitrophenyl)-3-(p-tolyl)urea]

ΔTm at 25 µM (Table 3): 4.3 °C
SMILES: Cc1ccc(NC(=O)Nc2ccc(Cl)c([N+](=O)[O-])c2)cc1 [Compound 046, 1-(4-chloro-3-nitrophenyl)-3-(p-tolyl)urea]

ΔTm at 25 µM (Table 1): 0.75 °C
SMILES: N#CN=C(Nc1ccc(F)cc1)Nc1ccc(Cl)c([N+](=O)[O-])c1 [Compound 0047, 1-(4-chloro-3-nitro-phenyl)-2-cyano-3-(4-fluorophenyl)guanidine]

ΔTm at 25 µM (Table 3): 0.75 °C
SMILES: N#CN=C(Nc1ccc(F)cc1)Nc1ccc(Cl)c([N+](=O)[O-])c1 [Compound 047, 1-(4-chloro-3-nitro-phenyl)-2-cyano-3-(4-fluorophenyl)guanidine]

ΔTm at 25 µM (Table 1): 2.61 °C
SMILES: O=C(Nc1ccc(Cl)cc1)Nc1ccc(Cl)c([N+](=O)[O-])c1 [Compound 0048, 1-(4-chloro-3-nitrophenyl)-3-(4-chlorophenyl)urea]

ΔTm at 25 µM (Table 3): 2.61 °C
SMILES: O=C(Nc1ccc(Cl)cc1)Nc1ccc(Cl)c([N+](=O)[O-])c1 [Compound 048, 1-(4-chloro-3-nitrophenyl)-3-(4-chlorophenyl)urea]

ΔTm at 25 µM (Table 1): 3.11 °C
SMILES: O=C(Nc1ccc(Cl)cc1)Nc1cccc([N+](=O)[O-])c1 [Compound 0049, 1-(4-chlorophenyl)-3-(3-nitrophenyl)urea]

ΔTm at 25 µM (Table 3): 3.11 °C
SMILES: O=C(Nc1ccc(Cl)cc1)Nc1cccc([N+](=O)[O-])c1 [Compound 049, 1-(4-chlorophenyl)-3-(3-nitrophenyl)urea]

ΔTm at 25 µM (Table 3): 2.9 °C
SMILES: O=C(Nc1ccc(F)cc1)Nc1ccc(Cl)c(S(=O)(=O)C(F)(F)F)c1 [Compound 054, 1-[4-chloro-3-(trifluoromethylsulfonyl)phenyl]-3-(4-fluorophenyl)urea]

ΔTm at 25 µM (Table 1): 2.5 °C
SMILES: O=C(Nc1ccc(F)cc1)Nc1cccc(Cl)c1 [Compound 0060, 1-(3-chlorophenyl)-3-(4-fluorophenyl)urea]

ΔTm at 25 µM (Table 3): 2.5 °C
SMILES: O=C(Nc1ccc(F)cc1)Nc1cccc(Cl)c1 [Compound 060, 1-(3-chlorophenyl)-3-(4-fluorophenyl)urea]

ΔTm at 25 µM (Table 1): 2.94 °C
SMILES: O=C(Nc1cccc(Cl)c1)Nc1ccc(Cl)c([N+](=O)[O-])c1 [Compound 0061, 1-(4-chloro-3-nitrophenyl)-3-(3-chlorophenyl)urea]

ΔTm at 25 µM (Table 3): 2.94 °C
SMILES: O=C(Nc1cccc(Cl)c1)Nc1ccc(Cl)c([N+](=O)[O-])c1 [Compound 061, 1-(4-chloro-3-nitrophenyl)-3-(3-chlorophenyl)urea]

ΔTm at 25 µM (Table 1): 2.5 °C
SMILES: Cc1cccc(NC(=O)Nc2cccc(Cl)c2)c1 [Compound 0063, 1-(3-chlorophenyl)-3-(m-tolyl)urea]

ΔTm at 25 µM (Table 3): 2.3 °C
SMILES: O=c1c(Nc2ccc(F)cc2)c(Nc2ccc(Cl)c(C(F)(F)F)c2)c1=O [Compound 064, 3-[4-chloro-3-(trifluoromethyl)anilino]-4-(4-fluoroanilino)cyclobut-3-ene-1,2-dione]

ΔTm at 25 µM (Table 1): 3 °C
SMILES: O=C(Nc1ccc(Cl)cc1)Nc1cccc(Cl)c1 [Compound 0066, 1-(3-chlorophenyl)-3-(4-chlorophenyl)urea]

ΔTm at 25 µM (Table 3): 3 °C
SMILES: O=C(Nc1ccc(Cl)cc1)Nc1cccc(Cl)c1 [Compound 066, 1-(3-chlorophenyl)-3-(4-chlorophenyl)urea]

ΔTm at 25 µM (Table 1): 4 °C
SMILES: Cc1cccc(NC(=O)Nc2cccc([N+](=O)[O-])c2)c1 [Compound 0067, 1-(3-nitrophenyl)-3-(m-tolyl)urea]

ΔTm at 25 µM (Table 3): 4 °C
SMILES: Cc1cccc(NC(=O)Nc2cccc([N+](=O)[O-])c2)c1 [Compound 067, 1-(3-nitrophenyl)-3-(m-tolyl)urea]

ΔTm at 25 µM (Table 1): 2.75 °C
SMILES: Cc1ccc(NC(=O)Nc2cccc(Cl)c2)cc1 [Compound 0068, 1-(3-chlorophenyl)-3-(p-tolyl)urea]

ΔTm at 25 µM (Table 3): 2.75 °C
SMILES: Cc1ccc(NC(=O)Nc2cccc(Cl)c2)cc1 [Compound 068, 1-(3-chlorophenyl)-3-(p-tolyl)urea]
